From patent US10844077B2, “Thiazolyl-containing compounds for treating proliferative diseases” (Dana-Farber Cancer Institute, Inc., priority 2014, dated 2020)
Several values for one entry are separate records, joined by “and”; a condition that tells them apart may be missing. Equal values may be shown once.

Tests used:
[1] = biological target: broad panel of kinases (Homo sapiens, UniProt O14936); format: binding; conditions: CASK; 1 μM
[2] = biological target: broad panel of kinases (Homo sapiens, UniProt P10721, L576P); format: binding; conditions: KIT(L576P); 1 μM
[3] = biological target: broad panel of kinases (Homo sapiens, UniProt P37173); format: binding; conditions: TGFBR2; 1 μM
[4] = biological target: broad panel of kinases (Homo sapiens, UniProt P52333); format: binding; conditions: JAK3(JH1domain-catalytic); 1 μM
[5] = biological target: broad panel of kinases (Homo sapiens, UniProt Q32MK0); format: binding; conditions: MLCK; 1 μM
[6] = biological target: broad panel of kinases (Homo sapiens, UniProt Q9P0L2); format: binding; conditions: MARK1; 1 μM
[7] = biological target: broad panel of kinases (Homo sapiens, UniProt Q9Y2U5); format: binding; conditions: MAP3K2; 1 μM
[8] = biological target: kinases in BCWM.1 cells (Homo sapiens, UniProt O15530); assay: KINATIV assay of compounds I-3 and I-9, lysate directly labeled with ATP-biotin probe (no GF); format: cell-based; conditions: PDK1; Lys1; 1 μM, 90 min; no GF
Experimental: (§1) The cells were harvested and lysed. […] Bound kinases were identified and quantitated by ACTIVX as described in Patricelli et al., Biochemistry, 2007, 46(2): 350-358. The compounds were tested in duplicates against duplicate or quadruplicate control samples.

[9] = biological target: kinases in BCWM.1 cells (Homo sapiens, UniProt O75385); assay: as above; format: cell-based; conditions: ULK1; Lys2; 1 μM, 90 min; no GF
Experimental: as §1

[10] = biological target: kinases in BCWM.1 cells (Homo sapiens, UniProt P12931); assay: as above; format: cell-based; conditions: SRC; Lys1; 1 μM, 90 min; no GF
Experimental: as §1

[11] = biological target: kinases in BCWM.1 cells (Homo sapiens, UniProt P42338); assay: as above; format: cell-based; conditions: PIK3CB; ATP; 1 μM, 90 min; no GF
Experimental: as §1

[12] = biological target: kinases in BCWM.1 cells (Homo sapiens, UniProt P48426); assay: as above; format: cell-based; conditions: PIP4K2A; ATP; 1 μM, 90 min; no GF
kinases in BCWM.1 cells (Homo sapiens, UniProt P48426), sequence (P48426 2-406 limits assumed): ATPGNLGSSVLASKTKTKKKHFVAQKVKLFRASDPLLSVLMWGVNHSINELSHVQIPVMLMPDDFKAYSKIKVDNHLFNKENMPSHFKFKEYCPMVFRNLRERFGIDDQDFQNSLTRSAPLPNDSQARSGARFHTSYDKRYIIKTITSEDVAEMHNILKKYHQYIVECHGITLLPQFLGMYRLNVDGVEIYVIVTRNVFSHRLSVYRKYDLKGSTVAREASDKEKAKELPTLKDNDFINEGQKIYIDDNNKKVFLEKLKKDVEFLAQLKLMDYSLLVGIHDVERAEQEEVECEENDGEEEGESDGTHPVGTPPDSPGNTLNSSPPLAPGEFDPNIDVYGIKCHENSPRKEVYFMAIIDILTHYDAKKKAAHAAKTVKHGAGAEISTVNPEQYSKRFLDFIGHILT
Experimental: as §1

[13] = biological target: kinases in BCWM.1 cells (Homo sapiens, UniProt P51955); assay: as above; format: cell-based; conditions: NEK2; Lys2; 1 μM, 90 min; no GF
Experimental: as §1

[14] = biological target: kinases in BCWM.1 cells (Homo sapiens, UniProt Q00536); assay: as above; format: cell-based
Experimental: as §1

[15] = biological target: kinases in BCWM.1 cells (Homo sapiens, UniProt Q13464); assay: as above; format: cell-based; conditions: ROCK1; Protein Kinase Domain; 1 μM, 90 min; no GF
kinases in BCWM.1 cells (Homo sapiens, UniProt Q13464), sequence (Q13464 2-1354 limits assumed): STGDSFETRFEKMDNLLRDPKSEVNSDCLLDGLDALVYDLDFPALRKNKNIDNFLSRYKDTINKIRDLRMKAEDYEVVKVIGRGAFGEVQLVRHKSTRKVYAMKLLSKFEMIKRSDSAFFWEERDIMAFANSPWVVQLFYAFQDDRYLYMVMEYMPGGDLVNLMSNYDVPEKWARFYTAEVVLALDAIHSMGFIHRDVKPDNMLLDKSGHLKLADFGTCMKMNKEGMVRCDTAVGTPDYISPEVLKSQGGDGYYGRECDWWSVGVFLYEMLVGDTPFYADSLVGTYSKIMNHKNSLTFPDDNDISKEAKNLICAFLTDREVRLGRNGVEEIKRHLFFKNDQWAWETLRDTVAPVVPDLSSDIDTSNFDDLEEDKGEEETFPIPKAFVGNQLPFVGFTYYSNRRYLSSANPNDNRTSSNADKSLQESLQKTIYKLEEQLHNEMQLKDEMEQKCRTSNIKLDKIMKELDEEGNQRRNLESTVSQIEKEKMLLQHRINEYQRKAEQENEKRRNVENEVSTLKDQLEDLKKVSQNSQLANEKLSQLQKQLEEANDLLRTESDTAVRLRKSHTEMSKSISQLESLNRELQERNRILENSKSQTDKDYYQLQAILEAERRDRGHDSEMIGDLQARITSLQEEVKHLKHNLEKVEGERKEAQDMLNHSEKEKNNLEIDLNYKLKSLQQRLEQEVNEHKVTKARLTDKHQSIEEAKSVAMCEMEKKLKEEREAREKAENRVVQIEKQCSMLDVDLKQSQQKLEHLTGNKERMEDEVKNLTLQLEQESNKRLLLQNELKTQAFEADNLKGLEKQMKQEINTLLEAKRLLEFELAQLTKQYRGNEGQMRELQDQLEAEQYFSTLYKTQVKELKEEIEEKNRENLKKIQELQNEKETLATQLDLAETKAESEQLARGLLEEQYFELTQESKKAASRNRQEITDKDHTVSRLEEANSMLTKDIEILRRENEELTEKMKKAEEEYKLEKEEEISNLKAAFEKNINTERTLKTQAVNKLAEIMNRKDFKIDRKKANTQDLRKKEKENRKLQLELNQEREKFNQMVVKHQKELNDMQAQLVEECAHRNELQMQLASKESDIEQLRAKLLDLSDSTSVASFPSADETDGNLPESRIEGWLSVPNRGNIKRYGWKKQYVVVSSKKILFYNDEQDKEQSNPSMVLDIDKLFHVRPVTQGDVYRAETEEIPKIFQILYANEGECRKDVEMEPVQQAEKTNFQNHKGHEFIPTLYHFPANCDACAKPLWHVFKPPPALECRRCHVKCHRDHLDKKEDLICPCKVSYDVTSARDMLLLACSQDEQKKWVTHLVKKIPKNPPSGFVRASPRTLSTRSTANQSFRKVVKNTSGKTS
Experimental: as §1

[16] = biological target: kinases in BCWM.1 cells (Homo sapiens, UniProt Q16512); assay: as above; format: cell-based; conditions: PKN1; Lys1; 1 μM, 90 min; no GF
Experimental: as §1

[17] = biological target: kinases in BCWM.1 cells (Homo sapiens, UniProt Q16816); assay: as above; format: cell-based; conditions: PHKg1; Protein Kinase Domain; 1 μM, 90 min; no GF
Experimental: as §1

[18] = biological target: kinases in BCWM.1 cells (Homo sapiens, UniProt Q58A45); assay: as above; format: cell-based; conditions: PAN3; Protein Kinase Domain; 1 μM, 90 min; no GF
Experimental: as §1

[19] = biological target: kinases in BCWM.1 cells (Homo sapiens, UniProt Q6PHR2); assay: as above; format: cell-based; conditions: ULK3; Lys2; 1 μM, 90 min; no GF
Experimental: as §1

[20] = biological target: kinases in BCWM.1 cells (Homo sapiens, UniProt Q7RTN6); assay: as above; format: cell-based; conditions: STLK5; Activation Loop; 1 μM, 90 min; no GF
Experimental: as §1

[21] = biological target: kinases in BCWM.1 cells (Homo sapiens, UniProt Q96S44); assay: as above; format: cell-based; conditions: PRPK; ATP Loop; 1 μM, 90 min; no GF
Experimental: as §1

[22] = biological target: kinases in BCWM.1 cells (Homo sapiens, UniProt Q96SB4); assay: as above; format: cell-based; conditions: SRPK1; Lys2; 1 μM, 90 min; no GF
Experimental: as §1

[23] = biological target: kinases in BCWM.1 cells (Homo sapiens, UniProt Q9UBF8); assay: as above; format: cell-based; conditions: PI4KB; ATP; 1 μM, 90 min; no GF
kinases in BCWM.1 cells (Homo sapiens, UniProt Q9UBF8), sequence (Q9UBF8 2-816 limits assumed): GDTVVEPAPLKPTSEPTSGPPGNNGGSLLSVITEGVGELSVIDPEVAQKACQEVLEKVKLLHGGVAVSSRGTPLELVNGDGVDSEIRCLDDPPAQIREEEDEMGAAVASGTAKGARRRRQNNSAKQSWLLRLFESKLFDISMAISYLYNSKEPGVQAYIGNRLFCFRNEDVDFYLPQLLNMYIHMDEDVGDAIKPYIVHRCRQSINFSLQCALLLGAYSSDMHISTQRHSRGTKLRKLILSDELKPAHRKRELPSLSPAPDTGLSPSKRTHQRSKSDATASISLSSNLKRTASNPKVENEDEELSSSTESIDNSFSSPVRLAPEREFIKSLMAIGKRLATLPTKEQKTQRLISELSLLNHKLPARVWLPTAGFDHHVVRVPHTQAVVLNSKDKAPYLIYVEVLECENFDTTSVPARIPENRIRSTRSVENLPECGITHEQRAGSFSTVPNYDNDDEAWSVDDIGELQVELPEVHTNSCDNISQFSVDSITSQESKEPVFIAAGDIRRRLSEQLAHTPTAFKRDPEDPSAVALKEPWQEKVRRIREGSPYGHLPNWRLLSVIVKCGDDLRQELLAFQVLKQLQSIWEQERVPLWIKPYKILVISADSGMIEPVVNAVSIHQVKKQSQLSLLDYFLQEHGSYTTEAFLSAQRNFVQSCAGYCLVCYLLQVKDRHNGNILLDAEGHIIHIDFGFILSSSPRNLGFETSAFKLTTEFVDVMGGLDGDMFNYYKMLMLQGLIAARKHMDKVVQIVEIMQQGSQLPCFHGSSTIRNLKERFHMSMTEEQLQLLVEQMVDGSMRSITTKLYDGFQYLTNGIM
Experimental: as §1

[24] = biological target: kinases in BCWM.1 cells (Homo sapiens, UniProt Q9UHD2); assay: as above; format: cell-based; conditions: TBK1; Lys1; 1 μM, 90 min; no GF
Experimental: as §1

[25] = biological target: kinases in BCWM.1 cells (Homo sapiens, UniProt Q9UL54); assay: as above; format: cell-based; conditions: TAO2; Lys2; 1 μM, 90 min; no GF
Experimental: as §1

[26] = biological target: kinases in BCWM.1 cells (Homo sapiens, UniProt Q9Y2I7); assay: as above; format: cell-based; conditions: PIP5K3; ATP; 1 μM, 90 min; no GF
kinases in BCWM.1 cells (Homo sapiens, UniProt Q9Y2I7), sequence (Q9Y2I7 2-2098 limits assumed): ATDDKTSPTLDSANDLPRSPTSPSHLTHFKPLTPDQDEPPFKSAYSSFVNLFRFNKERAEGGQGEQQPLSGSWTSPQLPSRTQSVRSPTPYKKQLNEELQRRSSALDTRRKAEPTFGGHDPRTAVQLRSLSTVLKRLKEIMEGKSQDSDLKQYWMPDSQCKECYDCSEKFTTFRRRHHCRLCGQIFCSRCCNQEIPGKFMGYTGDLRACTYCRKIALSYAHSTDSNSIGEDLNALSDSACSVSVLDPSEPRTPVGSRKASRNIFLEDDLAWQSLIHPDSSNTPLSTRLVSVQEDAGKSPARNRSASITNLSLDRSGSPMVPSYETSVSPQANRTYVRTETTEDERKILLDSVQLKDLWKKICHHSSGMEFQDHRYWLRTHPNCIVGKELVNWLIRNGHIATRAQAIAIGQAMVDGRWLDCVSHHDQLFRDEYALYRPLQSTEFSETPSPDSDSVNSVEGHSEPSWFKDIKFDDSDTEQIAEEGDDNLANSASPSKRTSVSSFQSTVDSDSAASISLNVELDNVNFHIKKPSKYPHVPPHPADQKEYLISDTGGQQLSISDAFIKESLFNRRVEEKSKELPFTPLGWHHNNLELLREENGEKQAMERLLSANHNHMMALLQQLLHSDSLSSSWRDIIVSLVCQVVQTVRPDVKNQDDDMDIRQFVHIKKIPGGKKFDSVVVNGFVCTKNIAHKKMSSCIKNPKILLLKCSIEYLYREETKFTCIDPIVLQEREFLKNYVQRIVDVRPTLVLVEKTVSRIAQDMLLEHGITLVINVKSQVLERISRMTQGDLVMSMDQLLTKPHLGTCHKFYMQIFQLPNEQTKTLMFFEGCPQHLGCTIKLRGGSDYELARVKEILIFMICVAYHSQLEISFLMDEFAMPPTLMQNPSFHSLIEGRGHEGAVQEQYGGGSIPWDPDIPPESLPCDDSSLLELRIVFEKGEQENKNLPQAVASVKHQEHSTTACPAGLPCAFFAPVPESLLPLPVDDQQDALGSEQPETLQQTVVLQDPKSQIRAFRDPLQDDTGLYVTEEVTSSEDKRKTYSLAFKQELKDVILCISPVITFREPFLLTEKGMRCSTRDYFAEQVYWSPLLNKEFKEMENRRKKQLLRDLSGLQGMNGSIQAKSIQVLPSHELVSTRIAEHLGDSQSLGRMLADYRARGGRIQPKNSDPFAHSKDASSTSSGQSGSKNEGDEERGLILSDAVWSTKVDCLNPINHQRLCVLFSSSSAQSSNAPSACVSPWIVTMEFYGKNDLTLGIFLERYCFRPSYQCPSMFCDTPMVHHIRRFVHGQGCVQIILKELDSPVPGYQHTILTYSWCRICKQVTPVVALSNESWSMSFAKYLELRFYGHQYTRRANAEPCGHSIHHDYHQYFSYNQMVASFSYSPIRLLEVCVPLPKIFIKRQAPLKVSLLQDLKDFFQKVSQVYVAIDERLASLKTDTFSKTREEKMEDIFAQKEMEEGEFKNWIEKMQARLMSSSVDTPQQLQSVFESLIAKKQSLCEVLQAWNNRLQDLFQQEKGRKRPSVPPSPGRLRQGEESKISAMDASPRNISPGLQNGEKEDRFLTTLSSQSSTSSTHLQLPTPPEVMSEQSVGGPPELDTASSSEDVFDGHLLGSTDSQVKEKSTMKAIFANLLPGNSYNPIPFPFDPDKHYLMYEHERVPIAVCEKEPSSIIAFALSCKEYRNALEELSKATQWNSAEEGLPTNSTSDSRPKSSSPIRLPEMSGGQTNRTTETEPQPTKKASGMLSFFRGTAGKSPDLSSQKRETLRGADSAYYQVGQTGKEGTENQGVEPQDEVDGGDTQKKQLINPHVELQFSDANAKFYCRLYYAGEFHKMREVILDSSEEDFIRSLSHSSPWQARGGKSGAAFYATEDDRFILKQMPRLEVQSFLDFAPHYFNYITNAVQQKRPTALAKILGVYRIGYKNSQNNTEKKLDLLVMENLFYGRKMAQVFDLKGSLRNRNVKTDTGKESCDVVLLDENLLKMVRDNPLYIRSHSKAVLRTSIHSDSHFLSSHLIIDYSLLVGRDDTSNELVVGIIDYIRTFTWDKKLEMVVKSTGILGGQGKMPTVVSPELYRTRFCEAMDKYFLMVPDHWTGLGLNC
Experimental: as §1

[27] = biological target: kinases in BCWM.1 cells (Homo sapiens, UniProt Q9Y572); assay: as above; format: cell-based; conditions: RIPK3; Lys2; 1 μM, 90 min; no GF
Experimental: as §1

[28] = test system: kinases in BCWM.1 cells; assay: as above; format: cell-based; conditions: 1 μM, no GF
Experimental: as §1

[29] = PCTAIRE2, PCTAIRE3, Lys1, 90 min
[30] = RSK1 domain1, RSK2 domain1, RSK3 domain1, Lys2, 90 min
[31] = ZC1/HGK, ZC2/TNIK, ZC3/MINK, Lys2, 90 min

## C=CC(=O)N1CC[C@H](Nc2nc(CN3CCOCC3)cc(Nc3ncc(C(=O)Nc4c(C)cccc4C)s3)n2)C1 [Example I-2]
[1]
  percent of control binding remaining (lower = stronger binding): 100%
[2]
  percent of control binding remaining (lower = stronger binding): 0%
[3]
  percent of control binding remaining (lower = stronger binding): 94%
[4]
  percent of control binding remaining (lower = stronger binding): 0%
[5]
  percent of control binding remaining (lower = stronger binding): 100%
[6]
  percent of control binding remaining (lower = stronger binding): 97%
[7]
  percent of control binding remaining (lower = stronger binding): 96%

## C=CC(=O)N1CC[C@H](Nc2nccc(Nc3ncc(C(=O)Nc4c(C)cccc4C)s3)n2)C1 [Example I-3]
[8]
  % change of MS signal compared to control sample: −8.4%
[9]
  % change of MS signal compared to control sample: 9.9%
[10]
  % change of MS signal compared to control sample: 91.7%
[11]
  % change of MS signal compared to control sample: −9.1%
[12]
  % change of MS signal compared to control sample: −4.9%
[13]
  % change of MS signal compared to control sample: 20.5%
[14]
  % change of MS signal compared to control sample: 10%
[15]
  % change of MS signal compared to control sample: 2.6%
[16]
  % change of MS signal compared to control sample: −3.3%
[17]
  % change of MS signal compared to control sample: 31.7%
[18]
  % change of MS signal compared to control sample: −17.5%
[19]
  % change of MS signal compared to control sample: 8.2%
[20]
  % change of MS signal compared to control sample: 10.4%
[21]
  % change of MS signal compared to control sample: 2.1%
[22]
  % change of MS signal compared to control sample: −7.8%
[23]
  % change of MS signal compared to control sample: 6.4%
[24]
  % change of MS signal compared to control sample: −25.1%
[25]
  % change of MS signal compared to control sample: 5%
[26]
  % change of MS signal compared to control sample: 6.5%
[27]
  % change of MS signal compared to control sample: 13.4%
[28]; ABL, ARG, Activation Loop
  % change of MS signal compared to control sample: 75.4% and 93.5%
[28]; ABL, ARG, Lys1
  % change of MS signal compared to control sample: 86.9% and 93.2%
[28]; AKT2, AKT3, ATP Loop
  % change of MS signal compared to control sample: −19.2% and −14.5%
[28]; AurA, AurB, AurC, ATP Loop
  % change of MS signal compared to control sample: 7.7% and 4.7%
[28]; FYN, SRC, YES, Activation Loop
  % change of MS signal compared to control sample: 87.3% and 85.7%
[28]; MARK3, MARK4, Lys1
  % change of MS signal compared to control sample: 2.5% and −4%
[28]; MER, TYRO3, Activation Loop
  % change of MS signal compared to control sample: 2.4% and 0.4%
[28]; MST4, YSK1, Lys2, 90 min
  % change of MS signal compared to control sample: 18.1%
[28]; NEK6, NEK7, Lys2, 90 min
  % change of MS signal compared to control sample: 6.4%
[28]; [29]
  % change of MS signal compared to control sample: −0.4%
[28]; PI4KA, PI4KAP2, ATP, 90 min
  % change of MS signal compared to control sample: −3.7%
[28]; PKACa, PKCb, Lys2, 90 min
  % change of MS signal compared to control sample: 2.4%
[28]; ROCK1, ROCK2, Lys2, 90 min
  % change of MS signal compared to control sample: −22.2%
[28]; [30]
  % change of MS signal compared to control sample: −14.8%
[28]; SRPK1, SRPK2, Lys1, 90 min
  % change of MS signal compared to control sample: −3%
[28]; TAO1, TAO3, Lys2, 90 min
  % change of MS signal compared to control sample: 7.8%
[28]; Wnk1, Wnk2, Wnk3, Lys2, 90 min
  % change of MS signal compared to control sample: 14.9%
[28]; Wnk1, Wnk2, ATP Loop, 90 min
  % change of MS signal compared to control sample: 13.1%
[28]; [31]
  % change of MS signal compared to control sample: 2.7%
[28]; p38d, p38g, Lys2, 90 min
  % change of MS signal compared to control sample: 5.7%
[1]
  percent of control binding remaining (lower = stronger binding): 98%
[2]
  percent of control binding remaining (lower = stronger binding): 0%
[3]
  percent of control binding remaining (lower = stronger binding): 100%
[4]
  percent of control binding remaining (lower = stronger binding): 0%
[5]
  percent of control binding remaining (lower = stronger binding): 100%
[6]
  percent of control binding remaining (lower = stronger binding): 93%
[7]
  percent of control binding remaining (lower = stronger binding): 98%

## CCC(=O)N1CC[C@H](Nc2nccc(Nc3ncc(C(=O)Nc4c(C)cccc4C)s3)n2)C1 [Example I-9]
[8]
  % change of MS signal compared to control sample: −6.4%
[9]
  % change of MS signal compared to control sample: −5.7%
[10]
  % change of MS signal compared to control sample: 78.6%
[11]
  % change of MS signal compared to control sample: 33.6%
[12]
  % change of MS signal compared to control sample: −10.5%
[13]
  % change of MS signal compared to control sample: −8.2%
[14]
  % change of MS signal compared to control sample: 4.1%
[15]
  % change of MS signal compared to control sample: −7.3%
[16]
  % change of MS signal compared to control sample: −4.9%
[17]
  % change of MS signal compared to control sample: −51%
[18]
  % change of MS signal compared to control sample: 23.2%
[19]
  % change of MS signal compared to control sample: −16.4%
[20]
  % change of MS signal compared to control sample: −12.9%
[21]
  % change of MS signal compared to control sample: −2%
[22]
  % change of MS signal compared to control sample: −4%
[23]
  % change of MS signal compared to control sample: −24.3%
[24]
  % change of MS signal compared to control sample: 23%
[25]
  % change of MS signal compared to control sample: 4.3%
[26]
  % change of MS signal compared to control sample: −6.7%
[27]
  % change of MS signal compared to control sample: −15%
[28]; MST4, YSK1, Lys2, 90 min
  % change of MS signal compared to control sample: 9.7%
[28]; NEK6, NEK7, Lys2, 90 min
  % change of MS signal compared to control sample: −3.3%
[28]; [29]
  % change of MS signal compared to control sample: −4.7%
[28]; PI4KA, PI4KAP2, ATP, 90 min
  % change of MS signal compared to control sample: 20.3%
[28]; PKACa, PKCb, Lys2, 90 min
  % change of MS signal compared to control sample: 16.9%
[28]; ROCK1, ROCK2, Lys2, 90 min
  % change of MS signal compared to control sample: 24.4%
[28]; [30]
  % change of MS signal compared to control sample: −12%
[28]; SRPK1, SRPK2, Lys1, 90 min
  % change of MS signal compared to control sample: 10%
[28]; TAO1, TAO3, Lys2, 90 min
  % change of MS signal compared to control sample: 5.1%
[28]; Wnk1, Wnk2, Wnk3, Lys2, 90 min
  % change of MS signal compared to control sample: −10.8%
[28]; Wnk1, Wnk2, ATP Loop, 90 min
  % change of MS signal compared to control sample: −6.3%
[28]; [31]
  % change of MS signal compared to control sample: −2%
[28]; p38d, p38g, Lys2, 90 min
  % change of MS signal compared to control sample: −8.8%
